Measurements from ChEMBL document CHEMBL1133428, “Naphthyl ketones: a new class of Janus kinase 3 inhibitors” (Bioorg Med Chem Lett, 2000).

How the values were obtained:
[1] = molecular target: Cyclin-dependent kinase 4 (Homo sapiens, UniProt P11802); test: Inhibition of Cyclin-dependent kinase 4
[2] = molecular target: Epidermal growth factor receptor (Homo sapiens, UniProt P00533); test: Inhibition of Epidermal growth factor receptor
[3] = molecular target: Tyrosine-protein kinase Lck (Homo sapiens, UniProt P06239); test: Inhibition of p56 Lck tyrosine kinase
[4] = molecular target: Tyrosine-protein kinase JAK1 (Homo sapiens, UniProt P23458); test: Inhibition of Janus kinase 1
Chain of Tyrosine-protein kinase JAK1 (P23458 whole entry): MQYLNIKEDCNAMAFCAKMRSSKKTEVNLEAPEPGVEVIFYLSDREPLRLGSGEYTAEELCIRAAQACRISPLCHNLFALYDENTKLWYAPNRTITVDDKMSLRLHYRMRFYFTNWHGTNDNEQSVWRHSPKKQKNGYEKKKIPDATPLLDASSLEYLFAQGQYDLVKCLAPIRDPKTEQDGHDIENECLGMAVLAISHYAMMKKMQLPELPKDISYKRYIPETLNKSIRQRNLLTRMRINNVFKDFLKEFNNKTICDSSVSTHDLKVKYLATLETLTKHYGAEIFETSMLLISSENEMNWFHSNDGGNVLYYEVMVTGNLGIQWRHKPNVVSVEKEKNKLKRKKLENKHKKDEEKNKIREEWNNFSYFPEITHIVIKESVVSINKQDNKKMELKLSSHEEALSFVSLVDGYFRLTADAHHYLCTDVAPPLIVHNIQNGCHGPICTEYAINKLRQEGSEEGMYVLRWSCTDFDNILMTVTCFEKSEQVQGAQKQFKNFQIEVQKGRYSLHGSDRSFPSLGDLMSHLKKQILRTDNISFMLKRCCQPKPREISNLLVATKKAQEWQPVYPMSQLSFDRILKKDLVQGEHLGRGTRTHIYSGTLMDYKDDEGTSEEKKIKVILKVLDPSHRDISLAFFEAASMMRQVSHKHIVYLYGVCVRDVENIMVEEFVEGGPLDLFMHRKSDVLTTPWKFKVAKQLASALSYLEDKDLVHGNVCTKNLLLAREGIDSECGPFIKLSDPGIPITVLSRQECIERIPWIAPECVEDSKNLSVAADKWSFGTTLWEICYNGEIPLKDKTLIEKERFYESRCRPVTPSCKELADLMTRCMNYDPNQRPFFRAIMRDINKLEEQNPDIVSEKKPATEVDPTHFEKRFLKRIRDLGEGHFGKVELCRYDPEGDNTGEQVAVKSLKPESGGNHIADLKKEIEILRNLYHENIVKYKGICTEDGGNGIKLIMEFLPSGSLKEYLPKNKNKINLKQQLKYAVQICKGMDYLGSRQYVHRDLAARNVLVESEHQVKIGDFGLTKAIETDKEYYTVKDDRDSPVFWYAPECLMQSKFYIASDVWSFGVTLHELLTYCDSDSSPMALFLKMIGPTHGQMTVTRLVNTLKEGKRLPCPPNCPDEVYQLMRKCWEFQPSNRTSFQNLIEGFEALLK

Chain of Epidermal growth factor receptor (P00533 whole entry): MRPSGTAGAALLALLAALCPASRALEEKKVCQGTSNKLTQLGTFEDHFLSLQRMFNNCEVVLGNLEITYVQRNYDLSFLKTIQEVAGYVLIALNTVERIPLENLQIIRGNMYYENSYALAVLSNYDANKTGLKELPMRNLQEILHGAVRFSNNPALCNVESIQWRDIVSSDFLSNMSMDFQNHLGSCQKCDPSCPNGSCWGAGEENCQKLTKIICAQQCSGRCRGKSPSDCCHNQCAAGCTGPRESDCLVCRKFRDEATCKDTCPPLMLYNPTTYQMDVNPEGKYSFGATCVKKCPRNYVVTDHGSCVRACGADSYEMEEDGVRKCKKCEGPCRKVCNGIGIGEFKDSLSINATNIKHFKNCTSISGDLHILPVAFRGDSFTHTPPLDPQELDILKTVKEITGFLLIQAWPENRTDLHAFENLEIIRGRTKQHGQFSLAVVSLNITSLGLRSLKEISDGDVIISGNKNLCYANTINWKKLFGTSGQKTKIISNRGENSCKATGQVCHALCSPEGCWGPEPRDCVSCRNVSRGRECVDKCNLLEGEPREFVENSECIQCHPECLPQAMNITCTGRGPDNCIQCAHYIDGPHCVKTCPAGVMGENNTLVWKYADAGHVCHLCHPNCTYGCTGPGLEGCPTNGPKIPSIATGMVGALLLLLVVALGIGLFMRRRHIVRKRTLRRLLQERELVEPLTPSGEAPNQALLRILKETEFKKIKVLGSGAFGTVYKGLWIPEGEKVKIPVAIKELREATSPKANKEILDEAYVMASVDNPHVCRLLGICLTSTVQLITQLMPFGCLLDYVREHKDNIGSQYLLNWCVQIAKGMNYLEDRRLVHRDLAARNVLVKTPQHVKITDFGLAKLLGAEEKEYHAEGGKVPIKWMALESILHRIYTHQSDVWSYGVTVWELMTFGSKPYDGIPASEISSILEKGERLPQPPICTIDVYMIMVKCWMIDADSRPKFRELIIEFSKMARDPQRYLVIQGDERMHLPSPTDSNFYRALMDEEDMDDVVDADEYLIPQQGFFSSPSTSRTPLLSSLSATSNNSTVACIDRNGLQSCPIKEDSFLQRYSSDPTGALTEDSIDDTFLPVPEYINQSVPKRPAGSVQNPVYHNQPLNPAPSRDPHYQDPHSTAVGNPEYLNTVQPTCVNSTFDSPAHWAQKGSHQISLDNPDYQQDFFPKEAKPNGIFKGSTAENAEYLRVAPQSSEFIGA
Chain of Cyclin-dependent kinase 4 (P11802 whole entry): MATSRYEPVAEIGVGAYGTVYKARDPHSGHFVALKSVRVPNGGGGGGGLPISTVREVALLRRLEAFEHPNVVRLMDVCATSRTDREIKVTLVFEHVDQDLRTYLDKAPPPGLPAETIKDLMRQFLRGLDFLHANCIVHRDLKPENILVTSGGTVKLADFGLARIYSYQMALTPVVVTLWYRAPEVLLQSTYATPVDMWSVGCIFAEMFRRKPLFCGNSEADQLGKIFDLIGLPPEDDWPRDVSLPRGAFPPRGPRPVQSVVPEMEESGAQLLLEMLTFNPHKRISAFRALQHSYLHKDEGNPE
Chain of Tyrosine-protein kinase Lck (P06239 whole entry): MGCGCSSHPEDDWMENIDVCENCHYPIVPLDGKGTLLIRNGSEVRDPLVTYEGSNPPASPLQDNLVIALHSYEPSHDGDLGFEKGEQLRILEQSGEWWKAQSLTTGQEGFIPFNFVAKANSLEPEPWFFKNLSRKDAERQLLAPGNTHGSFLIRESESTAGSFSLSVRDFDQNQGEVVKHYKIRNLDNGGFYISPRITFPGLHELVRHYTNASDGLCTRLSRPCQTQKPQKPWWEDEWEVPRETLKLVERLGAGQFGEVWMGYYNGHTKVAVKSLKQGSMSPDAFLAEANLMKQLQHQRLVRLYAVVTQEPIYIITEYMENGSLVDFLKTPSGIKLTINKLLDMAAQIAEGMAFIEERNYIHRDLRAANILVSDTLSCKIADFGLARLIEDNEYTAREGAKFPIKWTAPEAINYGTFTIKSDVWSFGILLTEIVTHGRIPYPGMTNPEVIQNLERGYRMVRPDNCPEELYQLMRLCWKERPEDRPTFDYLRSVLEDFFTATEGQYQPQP

| Structure (SMILES) | IC50 [1] | IC50 [2] | IC50 [3] | IC50 [4] |
| --- | --- | --- | --- | --- |
| C=CC(=O)c1ccc2ccccc2c1 | > 10 µM | 10 µM | > 10 µM | 20 µM |
| CC(C)N(CCC(=O)c1ccc2ccccc2c1)Cc1ccccc1 | > 10 µM | 2.51 µM | > 10 µM | 39.8 µM |
